Measurements taken from patent US20240327415A1, “Multicomponent Complexes, Including Salts, Crystalline Forms, and Hydrates and Solvates of ENT1 Inhibitors” (iTeos Belgium SA, priority 2023, published 2024).
Values belong to the molecule of their own block, whether it stands above or below them.

Key:
Type in all cases: physicochemical
[1] = salt screen, XRPD of damp, dried and 40° C./75% RH stored samples (Salt Preparation Methods 1 and 2); parameters: key to XRPD Analysis Damp/Dry: A = amorphous; Evap. = isolated via evaporation; settings: Benzenesulfonic acid, 1 equiv.; IPA:H2O (75:25% v/v); AS tBME; (evap.)
Experimental: (§1) Salt Preparation Method 1: Approximately 25 mg of Compound 1 (free base) was weighed out into 1.5 mL screw-cap vials and a stirrer bar was added. For solid counterions, the appropriate amount of acid (1.0 or 2.0 equiv.) was weighed into separate 1.5 mL screw-cap vials. 100 μL of the appropriate solvent system was added to both the Compound 1 and the solid counterions. Stock solutions of liquid counterions were prepared, such that 100 μL contained 1.0 or 2.0 equiv. of acid. See counterion and solvent lists in Table 60 and Table 61 respectively.
(§2) The samples were stirred at 40° C. for 5-10 min and then the acid solutions were added to Compound 1, rinsing out the transfer vial with a further 50 μL of solvent. […] Experiments were temperature cycled between 40° C. and 5° C. (1 h hold; 0.1° C./min ramp/cool) for ca. 24-68 h. Anti-solvent addition (ASA) was carried out to slurries at 5° C. then experiments were heated to 30° C. over 1 h. ASA was carried out at 30° C. or 40° C. where clear solutions or gums were observed.
(§3) Temperature cycling was then continued for ca. 16-69 h, followed by further ASA and temperature cycling if required. Material was isolated at 5° C. and analyzed damp by XRPD. All isolated material was dried under vacuum at ca. 40° C. for ca. 17-91 h then re-analyzed by XRPD. The XRPD plate was stored at 40° C./75% RH for 24-48 h and then samples re-analyzed. Solutions were stored uncapped at ambient temperature to evaporate. Any residual solids were analyzed by XRPD.
(§4) Salt Preparation Method 2: The general procedure adopted in preparing the potential salts is outlined below. A known mass of Compound 1 (free base) and a known volume of the appropriate solvent system were added to 20 mL scintillation vials. The required mol. equiv. of the appropriate counterions were added to the vials as solutions or slurries in the corresponding solvent system.
(§5) The experiments were stirred at 40° C. for ca. 1 h, and then temperature cycled between 40° C. and 5° C. with 0.1° C./min ramp and 1 h hold between each step. Anti-solvent additions and subsequent slurrying at 5° C. were employed in order to facilitate crystallization. […] The damp and dried solids were subsampled and analyzed by XRPD. Where applicable, the dried solids were stored at 40° C./75% RH for 24-48 h in order to improve the crystallinity and/or facilitate solid form conversion to the desired form.

[2] = as above; parameters: key: A = amorphous; Evap. = isolated via evaporation
Experimental: as §1, §2, §3, §4, §5

[3] = seven-day solid stability studies (ambient; 40° C./75% RH; 80° C.), XRPD and HPLC; parameters: key to XRPD Analysis: Amorphous Compound 1 (free base); Crystalline Form 1 Compound 1 (free base); settings: for degradation by HPLC: after 7 days storage at 40° C./75% RH and ambient conditions; for decrease in purity by HPLC: after 7 days storage at 80° C.
Experimental: In the experiment, one set of vials was exposed to ambient light, temperature and humidity conditions. Another was exposed openly to 40° C. and 75% RH conditions and a third was sealed and exposed to 80° C. conditions. After 7 days, XRPD and HPLC measurements were collected.
Example 12-Stability Studies of Amorphous Compound 1 (free base) and Crystalline Form 1 Compound 1 (free base): Seven-day stability studies were carried out comparing amorphous Compound 1 (free base) and crystalline Form 1 Compound 1 (free base) at 40° C./75% RH, under ambient conditions and at 80° C. After storage at 40° C./75% RH and 80° C., the amorphous material formed glassy solids which were pale yellow (40° C./75% RH) or orange (80° C.). It is likely that the material melted and re-solidified at 80° C. and deliquesced at 40° C./75% RH. […] (decrease in purity of ca. 11% area).
Example 15-Stabilities Studies-Crystalline Form 3 Compound 1 di(hydrogen sulfate) and Crystalline Form 4 Compound 1 mono(hydrogen sulfate): Seven-day stability studies were carried out on the prepared crystalline Form 3 Compound 1 di(hydrogen sulfate) and crystalline Form 4 Compound 1 mono(hydrogen sulfate) using the following conditions: (1) Ambient light, temperature and humidity conditions (open vial); (2) 40° C./75% RH (open vial); and (3) 80° C. (closed vial). After 7 days of storage under the specified conditions, XRPD and HPLC analyses were carried out on the residual solid materials, and the results are summarized in Table 51.
Example 18-Seven Day Stability Study on Crystalline Form 2 Compound 1 di(hydrogen sulfate) trihydrate: A 7-day stability study was conducted on crystalline Form 2 Compound 1 di(hydrogen sulfate) trihydrate using the following conditions: (1) ambient light, temperature, and humidity conditions (open vial); (2) 40° C., 75% RH (open vial); and (3) 80° C. (closed vial). After 7 days of storage under the specified, XRPD and HPLC analyses were carried out on the residual solid materials.

[4] = Dynamic Vapor Sorption (DVS)
Experimental: (§6) METHOD A: In Example 11, approximately 5-15 mg of sample was placed into a mesh vapor sorption balance pan and loaded into either a DVS Intrinsic or DVS Advantage dynamic vapor sorption balance by Surface Measurement Systems. The sample was subjected to a ramping profile from 40-90% relative humidity (RH) at 10% increments, maintaining the sample at each step until a stable weight had been achieved (dm/dt 0.004%, minimum step length 30 minutes, maximum step length 500 minutes) at 25° C. After completion of the sorption cycle, the sample was dried using the same procedure to 0% RH and then a second sorption cycle back to 40% RH was carried out. Two cycles were performed. The weight change during the sorption/desorption cycles were plotted, allowing the hygroscopic nature of the sample to be determined. XRPD analysis was then carried out on the residual solid.
as §6, with “B:” for “A:”, “Examples 2A, 3, 14, and 17,” for “Example 11,”, “10-20” for “5-15”, “determined.” for “determined. XRPD analysis was then carried out on the residual solid.”
as §6, with “Approximately 10-20” for “METHOD A: In Example 11, approximately 5-15”, “RH” for “relative humidity (RH)”, “min,” for “minutes,”, “min)” for “minutes)”, “determined.” for “determined. XRPD analysis was then carried out on the residual solid.”

[5] = Benzenesulfonic acid, 1 equiv., Acetonitrile, AS tBME
[6] = Benzenesulfonic acid, 1 equiv., Ethanol, AS Heptane
[7] = Benzenesulfonic acid, 1 equiv., Ethyl acetate, AS Heptane
[8] = Benzenesulfonic acid, 1 equiv., MEK, AS Heptane
[9] = Benzenesulfonic acid, 1 equiv., THF, AS Heptane
[10] = Benzenesulfonic acid, 2 equiv., Acetonitrile, AS tBME
[11] = Benzenesulfonic acid, 2 equiv., Ethanol, AS Heptane
[12] = Benzenesulfonic acid, 2 equiv., Ethyl acetate, AS Heptane
[13] = Benzenesulfonic acid, 2 equiv., IPA:H2O (75:25), AS tBME
[14] = Benzenesulfonic acid, 2 equiv., MEK, AS Heptane
[15] = Benzenesulfonic acid, 2 equiv., THF, AS Heptane
[16] = Hydrochloric acid, 1 equiv., Acetonitrile, AS tBME, (evap.)
[17] = Hydrochloric acid, 1 equiv., Ethanol*, AS Heptane, (evap.)
[18] = Hydrochloric acid, 1 equiv., Ethyl acetate, AS Heptane
[19] = Hydrochloric acid, 1 equiv., IPA:H2O (75:25% v/v), AS tBME, (evap.)
[20] = Hydrochloric acid, 1 equiv., MEK, AS Heptane
[21] = Hydrochloric acid, 1 equiv., THF, AS Heptane

XRPD Analysis Damp/Dry [1]: A (evap.)
XRPD Analysis 40° C. 75% RH [2, 5]: A
XRPD Analysis Damp [2, 5]: A
XRPD Analysis Dry [2, 5]: A
XRPD Analysis 40° C. 75% RH [2, 6]: A
XRPD Analysis Damp [2, 6]: A
XRPD Analysis Dry [2, 6]: A
XRPD Analysis 40° C. 75% RH [2, 7]: A
XRPD Analysis Damp [2, 7]: A
XRPD Analysis Dry [2, 7]: A
XRPD Analysis 40° C. 75% RH ([2]; Benzenesulfonic acid, 1 equiv., IPA:H2O (75:25% v/v), AS tBME): A
XRPD Analysis 40° C. 75% RH [2, 8]: A
XRPD Analysis Damp [2, 8]: A
XRPD Analysis Dry [2, 8]: A
XRPD Analysis 40° C. 75% RH [2, 9]: A
XRPD Analysis Damp [2, 9]: A
XRPD Analysis Dry [2, 9]: A
Compound: O=S(=O)(O)c1ccccc1 [Benzenesulfonic acid, 1 equiv.]

XRPD Analysis 40° C. 75% RH [2, 10]: A
XRPD Analysis Damp [2, 10]: A
XRPD Analysis Dry [2, 10]: A
XRPD Analysis 40° C. 75% RH [2, 11]: A
XRPD Analysis Damp [2, 11]: A
XRPD Analysis Dry [2, 11]: A
XRPD Analysis 40° C. 75% RH [2, 12]: A
XRPD Analysis Damp [2, 12]: A
XRPD Analysis Dry [2, 12]: A
XRPD Analysis 40° C. 75% RH [2, 13]: A
XRPD Analysis Damp [2, 13]: A
XRPD Analysis Dry [2, 13]: A
XRPD Analysis 40° C. 75% RH [2, 14]: A
XRPD Analysis Damp [2, 14]: A
XRPD Analysis Dry [2, 14]: A
XRPD Analysis 40° C. 75% RH [2, 15]: A
XRPD Analysis Damp [2, 15]: A
XRPD Analysis Dry [2, 15]: A
Compound: O=S(=O)(O)c1ccccc1 [Benzenesulfonic acid, 2 equiv.]

Compound: COc1cc(C(=O)O[C@@H]2CCCOc3cc(cc(OC)c3OC)C(=O)NCCCN3CCCN(CC2)CC3)cc(OC)c1OC [Form 1 Compound 1]
XRPD Analysis ([3]; 7 days, 40° C./75% RH): A
Post-Storage Observations ([3]; 7 days, 80° C.): Orange glassy
Solid Purity ([3]; 7 days, 80° C.): 84.1 % area
XRPD Analysis ([3]; 7 days, 80° C.): 1
Post-Storage Observations ([3]; 7 days, Ambient): White solid
Solid Purity ([3]; 7 days, Ambient): 99.9 % area
XRPD Analysis ([3]; 7 days, Ambient): A

Compound: COc1cc(C(=O)O[C@@H]2CCCOc3cc(cc(OC)c3OC)C(=O)NCCCN3CCCN(CC2)CC3)cc(OC)c1OC.O=S(=O)(O)O [Form 4 mono(hydrogen sulfate)]
HPLC ([3]; 7 days, 40° C./75% RH (open vial)): 99.87 % area
HPLC ([3]; 7 days, 40° C./75% RH, open vial): 99.87 % area
HPLC ([3]; 7 days, 80° C. (closed vial)): 99.64 % area
XRPD ([3]; 7 days, 80° C. (closed vial)): Amorphous*
HPLC ([3]; 7 days, 80° C., sealed): 99.64 % area
XRPD ([3]; 7 days, 80° C., sealed): Amorphous*
HPLC ([3]; 7 days, Ambient (open vial)): 99.89 % area
HPLC ([3]; 7 days, Ambient, open vial): 99.89 % area
HPLC ([3]; Input sample): 99.66 % area

Compound: Cl [Hydrochloric acid, 1 equiv.]
XRPD Analysis 40° C. 75% RH ([2]; Hydrochloric acid, 1 equiv., Acetonitrile, AS tBME): A
XRPD Analysis Damp [2, 16]: A
XRPD Analysis Dry [2, 16]: A
XRPD Analysis 40° C. 75% RH ([2]; Hydrochloric acid, 1 equiv., Ethanol*, AS Heptane): A
XRPD Analysis Damp [2, 17]: A
XRPD Analysis Dry [2, 17]: A
XRPD Analysis 40° C. 75% RH [2, 18]: A
XRPD Analysis Damp [2, 18]: A
XRPD Analysis Dry [2, 18]: A
XRPD Analysis 40° C. 75% RH ([2]; Hydrochloric acid, 1 equiv., IPA:H2O (75:25% v/v), AS tBME): A
XRPD Analysis Damp [2, 19]: A
XRPD Analysis Dry [2, 19]: A
XRPD Analysis 40° C. 75% RH [2, 20]: A
XRPD Analysis Damp [2, 20]: A
XRPD Analysis Dry [2, 20]: A
XRPD Analysis 40° C. 75% RH [2, 21]: A
XRPD Analysis Damp [2, 21]: A
XRPD Analysis Dry [2, 21]: A

Compound: COc1cc(C(=O)O[C@@H]2CCCOc3cc(cc(OC)c3OC)C(=O)NCCCN3CCCN(CC2)CC3)cc(OC)c1OC [amorphous Compound 1 (free base)]
hygroscopicity ([4]; 25° C.): hygroscopic
Post-Storage Observations ([3]; 7 days, 40° C./75% RH): Pale yellow
Solid Purity ([3]; 7 days, 40° C./75% RH): 98.8 % area
XRPD Analysis ([3]; 7 days, 40° C./75% RH): A
Post-Storage Observations ([3]; 7 days, 80° C.): Orange glassy
Solid Purity ([3]; 7 days, 80° C.): 87.5 % area
XRPD Analysis ([3]; 7 days, 80° C.): A
Post-Storage Observations ([3]; 7 days, Ambient): White solid
Solid Purity ([3]; 7 days, Ambient): 98.9 % area
XRPD Analysis ([3]; 7 days, Ambient): A
solid form by XRPD after storage ([3]; 7 days, all storage conditions): remained amorphous
degradation by HPLC [3]: no significant degradation
decrease in purity by HPLC [3]: ca. 11 % area
Input Material Purity ([3]; before storage): 98.8 % area

Compound: COc1cc(C(=O)O[C@@H]2CCCOc3cc(cc(OC)c3OC)C(=O)NCCCN3CCCN(CC2)CC3)cc(OC)c1OC [crystalline Form 1 Compound 1 (free base)]
hygroscopicity ([4]; 25° C.): slightly hygroscopic
post-DVS sample (XRPD / appearance) ([4]; DVS at 25° C.): predominantly amorphous material was recovered
moisture uptake (DVS) ([4]; at 80% RH, second sorption cycle, after likely formation of amorphous material): 3.3%
moisture uptake (DVS) ([4]; between 40-80% RH, first sorption cycle, 25° C.): 0.9%
moisture uptake (DVS) ([4]; between 80-90% RH, 25° C.): 3.8%
solid form by XRPD after storage ([3]; 7 days, 40° C./75% RH): amorphous material was recovered
solid form by XRPD after storage ([3]; 7 days, 80° C.): amorphous material was recovered
solid form by XRPD after storage ([3]; 7 days, ambient conditions): retained
degradation by HPLC [3]: no significant degradation
decrease in purity by HPLC [3]: ca. 15 % area
